Read-outs that look alike come from different tables or passages of the source.
Key:
Factor XIa = Factor XIa (Homo sapiens, UniProt P03951); experiment: Factor XIa inhibition assay (FLINT) utilizing a fluorophore-quencher pair peptide substrate 5Fam-[…]-K5Tamra; type: biochemical; conditions: kinetic (KIN) reads; values in nM; read-out: FXIa KIN Inh IC50
Procedure, shortened: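 FXIa was preincubated with compound for 30 min at room temperature in Tris pH 7.5 buffer containing CaCl2, BSA and CHAPS, then reacted with 15 μM quenched 5Fam/Tamra peptide substrate. Fluorescence (485/520 nm) was read kinetically every 5 min for 30 min.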

human plasma kallikrein = human plasma kallikrein (Homo sapiens, UniProt P03952); experiment: Kallikrein inhibition assay (FLINT) utilizing a quenched AMC peptide substrate Z-Gly-Pro-Arg-AMC; type: biochemical; conditions: kinetic (KIN) reads, read-out: Kallikrein KIN Inh IC50
Sequence of human plasma kallikrein (P03952 391-638 limits assumed): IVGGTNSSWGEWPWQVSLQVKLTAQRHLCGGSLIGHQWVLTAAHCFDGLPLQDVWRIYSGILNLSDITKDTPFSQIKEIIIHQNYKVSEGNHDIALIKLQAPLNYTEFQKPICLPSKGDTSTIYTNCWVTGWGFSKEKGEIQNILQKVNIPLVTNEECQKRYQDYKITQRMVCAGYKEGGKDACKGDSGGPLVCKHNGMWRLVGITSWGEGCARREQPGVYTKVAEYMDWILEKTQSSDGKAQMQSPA
Sequence of human plasma kallikrein (P03952 20-390 partner limits assumed): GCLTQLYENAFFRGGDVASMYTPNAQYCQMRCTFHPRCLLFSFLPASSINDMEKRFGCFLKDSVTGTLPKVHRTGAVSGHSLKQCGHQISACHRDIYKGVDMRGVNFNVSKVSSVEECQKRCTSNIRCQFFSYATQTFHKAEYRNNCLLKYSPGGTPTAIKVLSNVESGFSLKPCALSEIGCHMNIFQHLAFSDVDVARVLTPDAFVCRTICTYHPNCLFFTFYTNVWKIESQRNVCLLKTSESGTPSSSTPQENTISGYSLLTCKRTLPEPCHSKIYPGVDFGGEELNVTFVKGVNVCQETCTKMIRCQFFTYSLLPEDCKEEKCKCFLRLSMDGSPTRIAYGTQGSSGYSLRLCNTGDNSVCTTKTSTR
Procedure, shortened: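 Human plasma kallikrein (2 nM final) pre-incubated 30 min with compound (11-point 3-fold series, top 1 μM, 2% DMSO), then 50 μM Z-Gly-Pro-Arg-AMC added. Buffer 50 mM Tris pH 7.5, 100 mM NaCl, 5 mM CaCl2, BSA, CHAPS. AMC fluorescence (340/440 nm) read kinetically over 30 min at room temperature, IC50 by 4-parameter logistic fit.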

Sequence of Factor XIa (P03951 388-625 limits assumed): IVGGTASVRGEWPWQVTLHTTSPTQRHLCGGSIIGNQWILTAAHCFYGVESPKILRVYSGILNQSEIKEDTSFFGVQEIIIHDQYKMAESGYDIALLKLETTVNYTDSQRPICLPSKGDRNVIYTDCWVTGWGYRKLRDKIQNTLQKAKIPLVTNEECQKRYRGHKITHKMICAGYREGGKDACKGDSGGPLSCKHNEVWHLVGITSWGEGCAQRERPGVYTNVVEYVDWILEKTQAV
Sequence of Factor XIa (P03951 19-387 partner limits assumed): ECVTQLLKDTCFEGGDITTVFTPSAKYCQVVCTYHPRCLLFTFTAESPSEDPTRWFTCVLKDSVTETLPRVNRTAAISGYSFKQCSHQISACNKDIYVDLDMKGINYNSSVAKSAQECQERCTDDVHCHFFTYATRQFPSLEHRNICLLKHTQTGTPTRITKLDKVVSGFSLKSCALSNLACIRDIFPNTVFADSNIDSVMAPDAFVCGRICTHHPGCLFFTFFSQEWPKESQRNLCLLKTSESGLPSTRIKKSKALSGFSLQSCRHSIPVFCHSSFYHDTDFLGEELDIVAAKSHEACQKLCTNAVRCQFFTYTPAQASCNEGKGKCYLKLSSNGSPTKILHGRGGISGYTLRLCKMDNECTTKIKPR

## Nc1ccc(-c2cnc([C@H]3CC4(CC4)c4nc(-c5c(-n6cnnn6)ccc(Cl)c5F)cc(=O)n43)[nH]2)c(F)n1 [Example 133, (R)-6′-(5-(6-Amino-2-fluoropyridin-3-yl)-1H-imidazol-2-yl)-2′-(3-chloro-2-fluoro-6-(1H-tetrazol-1-yl)phenyl)-6′,7′-dihydro-4′H-spiro[cyclopropane-1,8′-pyrrolo[1,2-a]pyrimidin]-4′-one]
Factor XIa
  IC50: 231 nM
Human plasma kallikrein; unit μM
  IC50: 4 µM

## Nc1ccc(-c2cnc([C@@H]3CC4(CC4)c4nc(-c5c(-n6cnnn6)ccc(Cl)c5F)cc(=O)n43)[nH]2)c(F)n1 [Example 134, (S)-6′-(5-(6-Amino-2-fluoropyridin-3-yl)-1H-imidazol-2-yl)-2′-(3-chloro-2-fluoro-6-(1H-tetrazol-1-yl)phenyl)-6′,7′-dihydro-4′H-spiro[cyclopropane-1,8′-pyrrolo[1,2-a]pyrimidin]-4′-one]
Factor XIa
  IC50: 1.2 nM
Human plasma kallikrein; values in nM
  IC50: 0.0168 µM

## CCO[C@@H]1C[C@@H](c2ncc(-c3ccc(N)nc3F)[nH]2)n2c1cc(-c1c(-n3cnnn3)ccc(Cl)c1F)cc2=O [Example 139, (1R,3S)-3-(5-(6-Amino-2-fluoropyridin-3-yl)-1H-imidazol-2-yl)-7-(3-chloro-2-fluoro-6-(1H-tetrazol-1-yl)phenyl)-1-ethoxy-2,3-dihydroindolizin-5(1H)-one]
Factor XIa
  IC50: 0.3 nM
Human plasma kallikrein; values in nM
  IC50: 0.018 µM

## C[C@H]1C[C@H](c2ncc(-c3ccc(N)nc3Cl)[nH]2)n2c1nc(-c1c(-n3cnnn3)ccc(Cl)c1F)cc2=O [Example 141]
Factor XIa
  IC50: 0.5 nM
Human plasma kallikrein; values in nM
  IC50: 0.0135 µM

## COC(=O)Nc1ccc(-c2cnc([C@@H]3C[C@@H](OC)c4cc(-c5c(-n6cnnn6)ccc(Cl)c5F)cc(=O)n43)[nH]2)cc1 [Example 152, Methyl (4-(2-((1R,3S)-7-(3-chloro-2-fluoro-6-(1H-tetrazol-1-yl)phenyl)-1-methoxy-5-oxo-1,2,3,5-tetrahydroindolizin-3-yl)-1H-imidazol-5-yl)phenyl)carbamate]
Factor XIa
  IC50: 0.3 nM
Human plasma kallikrein; values in nM
  IC50: 0.0015 µM

— US20230097157A1, “Bicyclic Pyridin-2-one and pyrimidin-4-one Derivatives Useful As a Factor XIa Inhibitors” (Janssen Pharmaceutica NV, priority 2021, published 2023)
